The text below walks through data of patent US9890133B2 (priority 2011, dated 2018).

What is called EC50 is the concentration at which the effect is half-maximal.

Series [1] relates to Poliovirus 3. Nature of the series: microbe, parasite or virus in culture. The class given is cell-based. Conditions: Enterovirus C, read-out: Poliovirus3 EC50.
The nature of series [2]: in vitro. The note with it: human.

Converted amounts (≈) assume the structure as drawn. A value given as a limit tells only on which side of the number the result lay.

Consider `Cc1cc(C)cc(C(=O)NC23C(=O)c4c(N)cccc4C2(O)Oc2cc(C(C)C)ccc23)c1` (centres unmarked) [Example 191, N-(1-Amino-4b-hydroxy-7-isopropyl-10-oxo-9b,10-dihydro-4bH-indeno[1,2-b]benzofuran-9b-yl)-3,5-dimethylbenzamide], for which the EC50 in series [1] was under 0.01 µg/mL. The CC50 in series [2] is over 10 µg/mL; in series [2] (Picorana CC50) it was 4.12 µg/mL (≈ 9.31 µM).
For `CC(C)c1ccc2c(c1)OC1(O)c3cccc(N)c3C(=O)C21NC(=O)CF` (centres unmarked) [Example 193, N-(1-Amino-4b-hydroxy-7-isopropyl-10-oxo-9b,10-dihydro-4bH-benzo[d]indeno[1,2-b]furan-9b-yl)-2-fluoroacetamide], the EC50 in series [1] came to 0.011 µg/mL (≈ 0.0297 µM). The CC50 in series [2] (Picorana CC50) and in series [2] (Rhino CC50) was over 10 µg/mL each time.
Regarding `CC(C)c1ccc2c(c1)OC1(O)c3cccc(N)c3C(=O)C21NC(=O)c1ccccn1` (centres unmarked) [Example 197, N-(1-Amino-4b-hydroxy-7-isopropyl-10-oxo-9b,10-dihydro-4bH-indeno[1,2-b]benzofuran-9b-yl)picolinamide], the EC50 in series [1] was under 0.01 µg/mL. Also, the CC50 in series [2] is 16 µg/mL (≈ 38.6 µM); in series [2] (Picorana CC50), 34.5 µg/mL (≈ 82.9 µM).
For `CC(C)c1ccc2c(c1)OC1(O)c3cccc(N)c3C(=O)C21NC(=O)c1cccnc1` (centres unmarked) [Example 198, N-(1-Amino-4b-hydroxy-7-isopropyl-10-oxo-9b,10-dihydro-4bH-indeno[1,2-b]benzofuran-9b-yl)nicotinamide], in that order: under 0.01 µg/mL, 27.9 µg/mL (≈ 67.3 µM) and over 50 µg/mL.
As to `CC(C)c1ccc2c(c1)OC1(O)c3cccc(N)c3C(=O)C21NC(=O)c1ccncc1` (centres unmarked) [Example 199, N-(1-Amino-4b-hydroxy-7-isopropyl-10-oxo-9b,10-dihydro-4bH-indeno[1,2-b]benzofuran-9b-yl)isonicotinamide], the EC50 in series [1] was under 0.01 µg/mL. Moreover, the figures for the CC50 in series [2] and in series [2] (Picorana CC50) were 43 µg/mL (≈ 103 µM) and 48.3 µg/mL (≈ 116 µM), respectively.
On to `CC(C)c1ccc2c(c1)OC1(O)c3cccc(N)c3C(=O)C21NC(=O)c1cnccn1` (centres unmarked) [Example 200, N-(1-Amino-4b-hydroxy-7-isopropyl-10-oxo-9b,10-dihydro-4bH-indeno[1,2-b]benzofuran-9b-yl) pyrazine-2-carboxamide], for which the EC50 in series [1] was under 0.01 µg/mL. This compound returned a CC50 in series [2] of over 10 µg/mL.
The matching figures for `CC(C)c1ccc2c(c1)OC1(O)c3cccc(N)c3C(=O)C21NC(=O)c1ccco1` (centres unmarked) [Example 201, N-(1-Amino-4b-hydroxy-7-isopropyl-10-oxo-9b,10-dihydro-4bH-indeno[1,2-b]benzofuran-9b-yl)furane-2-carboxamide]: under 0.01 µg/mL and over 10 µg/mL.
As for `CC(C)c1ccc2c(c1)OC1(O)c3cccc(N)c3C(=O)C21NC(=O)c1ccc2ncccc2c1` (centres unmarked) [Example 203], in series [1], the EC50 is under 0.01 µg/mL. For the same compound, the CC50 in series [2] is over 10 µg/mL.
For the compound `CC(C)c1ccc2c(c1)OC1(O)c3cccc(N)c3C(=O)C21NC(=O)c1cc2ccccc2o1` (centres unmarked) [Example 204, N-(1-Amino-4b-hydroxy-7-isopropyl-10-oxo-9b,10-dihydro-4bH-benzo[d]indeno[1,2-b]furan-9b-yl)benzofurane-2-carboxamide], the EC50 in series [1] was 0.011 µg/mL (≈ 0.0242 µM). Besides, the CC50 in series [2] is over 10 µg/mL; in series [2] (Picorana CC50) it was over 4.51 µg/mL.
Turning to `Cc1c(C(=O)NC23C(=O)c4c(N)cccc4C2(O)Oc2cc(C(C)C)ccc23)oc2ccccc12` (centres unmarked) [Example 205], the EC50 in series [1] is 0.036 µg/mL (≈ 0.0768 µM). Further, the CC50 in series [2] is over 10 µg/mL.
`Cc1ncsc1C(=O)NC12C(=O)c3c(N)cccc3C1(O)Oc1cc(C(C)C)ccc12` (centres unmarked) [Example 206, N-(1-Amino-4b-hydroxy-7-isopropyl-10-oxo-9b,10-dihydro-4bH-indeno[1,2-b]benzofuran-9b-yl)-4-methylthiazole-5-carboxamide]: the EC50 in series [1] was under 0.01 µg/mL. The same compound returned a CC50 in series [2] of over 10 µg/mL.
For `CC(C)c1ccc2c(c1)OC1(O)c3cccc(N)c3C(=O)C21NC(=O)[C@@H]1CSC(=O)N1` (stereo partly drawn) [Example 207, (4R)—N-(1-amino-4b-hydroxy-7-isopropyl-10-oxo-9b,10-dihydro-4bH-indeno[1,2-b]benzofuran-9b-yl)-2-oxothiazolidine-4-carboxamide], in that order: under 0.01 µg/mL and over 10 µg/mL.
For `CC(C)c1ccc2c(c1)OC1(O)c3ccccc3C(=O)C21NC(=O)c1c[nH]c2ccccc12` (centres unmarked) [Example 209, N-(4b-Hydroxy-7-isopropyl-10-oxo-9b,10-dihydro-4bH-indeno[1,2-b]benzofuran-9b-yl)-1H-indole-3-carboxamide], the EC50 in series [1] worked out at 0.036 µg/mL (≈ 0.0821 µM). Further, the CC50 in series [2] is 8.43 µg/mL (≈ 19.2 µM); in series [2] (Picorana CC50) it was over 10 µg/mL.
As for `CC(C)c1ccc2c(c1)OC1(O)c3cccc(N)c3C(=O)C21NC(=O)c1n[nH]c2ccccc12` (centres unmarked) [Example 212, N-(1-Amino-4b-hydroxy-7-isopropyl-10-oxo-9b,10-dihydro-4bH-benzo[d]indeno[1,2-b]furan-9b-yl)-1H-indazole-3-carboxamide], the EC50 in series [1] is under 0.01 µg/mL. For the same compound, in series [2], the CC50 is over 10 µg/mL.
As to `CC(C)c1ccc2c(c1)OC1(O)c3cccc(N)c3C(=O)C21NC(=O)Cn1cnnn1` (centres unmarked) [Example 213, N-(1-Amino-4b-hydroxy-7-isopropyl-10-oxo-9b,10-dihydro-4bH-benzo[d]indeno[1,2-b]furan-9b-yl)-2-(1H-tetrazol-1-yl)acetamide], the EC50 in series [1] is under 0.01 µg/mL. In addition, the CC50 in series [2] was over 10 µg/mL.
For `CC(C)c1ccc2c(c1)OC1(O)c3cccc(N)c3C(=O)C21NC(=O)c1cnc2ccccc2c1` (centres unmarked) [Example 214, N-(1-Amino-4b-hydroxy-7-isopropyl-10-oxo-9b,10-dihydro-4bH-indeno[1,2-b]benzofuran-9b-yl)quinoline-3-carboxamide], the EC50 in series [1] was under 0.01 µg/mL. This compound showed a CC50 in series [2] of over 10 µg/mL.
With `CC(C)c1ccc2c(c1)OC1(O)c3cccc(N)c3C(=O)C21NC(=O)c1ccnc2ccccc12` (centres unmarked) [Example 215, N-(1-Amino-4b-hydroxy-7-isopropyl-10-oxo-9b,10-dihydro-4bH-indeno[1,2-b]benzofuran-9b-yl)quinoline-4-carboxamide], the EC50 in series [1] is under 0.01 µg/mL. In series [2], the CC50 was over 10 µg/mL.
Turning to `COc1sccc1C(=O)NC12C(=O)c3c(N)cccc3C1(O)Oc1cc(C(C)C)ccc12` (centres unmarked) [Example 217, N-(1-Amino-4b-hydroxy-7-isopropyl-10-oxo-9b,10-dihydro-4bH-indeno[1,2-b]benzofuran-9b-yl)-2-methoxythiophene-3-carboxamide], the EC50 in series [1] is 0.038 µg/mL (≈ 0.0843 µM). Further, the CC50 was over 10 µg/mL in series [2] and 4.24 µg/mL (≈ 9.41 µM) in series [2] (Picorana CC50).
For `CC(C)c1ccc2c(c1)OC1(O)c3ccccc3C(=O)C21NC(=O)c1ccc2[nH]nnc2c1` (centres unmarked) [Example 221, N-(4b-Hydroxy-7-isopropyl-10-oxo-9b,10-dihydro-4bH-benzo[d]indeno[1,2-b]furan-9b-yl)-1H-benzo[d][1,2,3]triazole-5-carboxamide], in that order: 0.016 µg/mL (≈ 0.0363 µM), 6.53 µg/mL (≈ 14.8 µM) and 14.5 µg/mL (≈ 32.9 µM).
For `CC(C)c1ccc2c(c1)OC1(O)c3ccccc3C(=O)C21NC(=O)c1ccc([N+](=O)[O-])s1` (centres unmarked) [Example 223, N-(4b-hydroxy-7-isopropyl-10-oxo-9b,10-dihydro-4bH-benzo[d]indeno[1,2-b]furan-9b-yl)-5-nitrothiophene-2-carboxamide], the EC50 in series [1] is under 0.01 µg/mL. Further, the figures for the CC50 in series [2] and in series [2] (Picorana CC50) were 4.36 µg/mL (≈ 9.68 µM) and 7.46 µg/mL (≈ 16.6 µM), respectively.
As to `CC(C)c1ccc2c(c1)OC1(O)c3cccc(N)c3C(=O)C21NC(=O)C(=O)c1cccs1` (centres unmarked) [Example 231, N-(1-Amino4b-hydroxy-7-isopropyl-10-oxo-9b,10-dihydro-4bH-indeno[1,2-b]benzofuran-9b-yl)-2-oxo-2-(thiophen-2-yl)acetamide], the EC50 in series [1] was under 0.01 µg/mL. Also, the CC50 in series [2] is over 10 µg/mL; in series [2] (Picorana CC50), 8.64 µg/mL (≈ 19.3 µM).
`CC(C)c1ccc2c(c1)OC1(O)c3cccc(N)c3C(=O)C21NC(=O)c1ccc[nH]1` (centres unmarked) [Example 233, N-(1-Amino-4b-hydroxy-7-isopropyl-10-oxo-9b,10-dihydro-4bH-indeno[1,2-b]benzofuran-9b-yl)-1H-pyrrole-2-carboxamide]: the EC50 in series [1] was under 0.01 µg/mL. Also, the CC50 in series [2] was over 10 µg/mL; in series [2] (Picorana CC50) it was 31.9 µg/mL (≈ 79 µM).
On to `COc1cc(C(=O)NC23C(=O)c4c(N)cccc4C2(O)Oc2cc(C(C)C)ccc23)ccn1` (centres unmarked) [Example 234, N-(1-Amino-4b-hydroxy-7-isopropyl-10-oxo-9b,10-dihydro-4bH-indeno[1,2-b]benzofuran-9b-yl)-2-methoxyisonicotinamide], for which the EC50 in series [1] was under 0.01 µg/mL. The figures for the CC50 in series [2] and in series [2] (Picorana CC50) were over 10 µg/mL and 9.1 µg/mL (≈ 20.4 µM), respectively.
As for `CC(C)c1ccc2c(c1)OC1(O)c3cccc(N)c3C(=O)C21NC(=O)c1cc2ccccc2s1` (centres unmarked) [Example 235, N-(1-Amino-4b-hydroxy-7-isopropyl-10-oxo-9b,10-dihydro-4bH-benzo[d]indeno[1,2-b]furan-9b-yl)benzo[b]thiophene-2-carboxamide], the EC50 in series [1] is under 0.01 µg/mL. Moreover, the values for the CC50 in series [2] and in series [2] (Picorana CC50) were 8.88 µg/mL (≈ 18.9 µM) and 7.97 µg/mL (≈ 16.9 µM), respectively.
On to `CC(C)c1ccc2c(c1)OC1(O)c3cccc(N)c3C(=O)C21NC(=O)c1cnnc2ccccc12` (centres unmarked) [Example 238, N-(1-Amino-4b-hydroxy-7-isopropyl-10-oxo-9b,10-dihydro-4bH-benzo[d]indeno[1,2-b]furan-9b-yl)cinnoline-4-carboxamide], for which the EC50 in series [1] is under 0.01 µg/mL. Besides, the CC50 is over 10 µg/mL in series [2] and 8.33 µg/mL (≈ 17.9 µM) in series [2] (Picorana CC50).
With `CC(C)c1ccc2c(c1)OC1(O)c3ccccc3C(=O)C21NC(=O)c1ccc2[nH]cnc2c1` (centres unmarked) [Example 240, N-(4b-hydroxy-7-isopropyl-10-oxo-9b,10-dihydro-4bH-benzo[d]indeno[1,2-b]furan-9b-yl)-1H-benzo[d]imidazole-5-carboxamide], in series [1], the EC50 was under 0.01 µg/mL. The figures for the CC50 in series [2] and in series [2] (Picorana CC50) were over 10 µg/mL and 8.25 µg/mL (≈ 18.8 µM), respectively.
For `CC(C)c1ccc2c(c1)OC1(O)c3cccc(N)c3C(=O)C21NC(=O)c1n[nH]cc1[N+](=O)[O-]` (centres unmarked) [Example 242, N-(1-Amino-4b-hydroxy-7-isopropyl-10-oxo-9b,10-dihydro-4bH-benzo[d]indeno[1,2-b]furan-9b-yl)-4-nitro-1H-pyrazole-3-carboxamide], the EC50 in series [1] was under 0.01 µg/mL. Besides, the results for the CC50 in series [2] and in series [2] (Picorana CC50) were over 10 µg/mL and 8.55 µg/mL (≈ 19 µM), respectively.
